# According to PMC11876601 (Molecular Systems Biology, 2025):
# Read-outs that look alike come from different tables or passages of the source.
# How the values were obtained:
# AsPC-1 cells = test: Drug combination viability screen (ATPlite, 72 h); assay type: cell-based, human; set-up: key to AUC: AUC of dose-response curve; AUC∆ = AUChypothetical − AUCexperimental; Curve top / Curve bottom / Curve effect size: scale not given here; conditions: for EC50: Homo sapiens; for Library drug only (ratio): cell viability (library drug/vehicle); for Library drug + GEM low (ratio) / Library drug + GEM high (ratio): cell viability vs vehicle; for Bliss_Library drug + GEM low (ratio) / Bliss_Library drug + GEM high (ratio): hypothetical viability, Bliss model;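 for AUC: area under vehicle-normalized viability curve scaled 0 to 100 percent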;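 for Curve bottom: fraction of vehicle control viability from four-parameter log-logistic fit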
# Protocol: Cell viability was assessed by measuring ATP levels to indicate metabolic activity.
# Afterward, small amounts were transferred to 384-well intermediate plates (Greiner Bio-One GmbH, Germany). […] For drug combination screening, 1000 to 5000 cells were seeded into 384-well plates (CulturPlate™, Perkin Elmer, MA, USA) using a Multidrop™ Combi Reagent Dispenser (Thermo Scientific, MA, USA) in 50 µl medium per well 24 h prior to drug treatment (seeding densities see Appendix Table S1). […] The final DMSO concentration in each well was 0.2%. […] Eight wells per plate without library drug served as negative controls, and sixteen wells per plate containing 5 µM Staurosporine served as positive controls. Control plates not containing any drug were used to correct for incubation effects, and data quality was assessed by calculation of Z-prime of positive and negative controls according to1 Z-prime=1−3SDpos+3SDneg/[…] where SD is the standard deviation. […] Dose–response curves from the experimental and hypothetical data were compared, and shifts in AUC were used to describe combination effects (AUC∆ = AUChypothetical − AUCexperimental). […] Only combinations with R^2 > 0.8 in both conditions were considered in the synergy analysis.
# AsPC-1 = test: cells; set-up: ATPlite luminescence viability of PDAC cell lines, 11-dose single-agent curves, 4-parameter fit; conditions: Homo sapiens, ASPC1, 72 h, read-out: EC50 [nM]
# How it was run: (§1)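 cells (1000 to 5000 per well) seeded 24 h before drug addition in a combination screen at 0.2% final DMSO. Controls were drug-free wells (negative) and 5 µM staurosporine (positive).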
# BxPC-3 = test: cells; set-up: ATPlite luminescence viability of PDAC cell lines, 11-dose single-agent curves, 4-parameter fit; conditions: Homo sapiens, BXPC-3, 72 h, read-out: EC50 [nM]
# How it was run: as §1
# PaTu-8988-T = test: cells; set-up: ATPlite luminescence viability of PDAC cell lines, 11-dose single-agent curves, 4-parameter fit; conditions: Homo sapiens, PaTu 8988t, 72 h, read-out: EC50 [nM]
# How it was run: as §1
# [1] = ASPC1, read-out: pEC50 (converted)
# [2] = AsPC-1, GEM high_Bliss (hypothetical data)
# [3] = AsPC-1, GEM low_Bliss (hypothetical data)
# [4] = AsPC-1, library drug 123.46 nM + GEM 10 nM
# [5] = AsPC-1, library drug 123.46 nM + GEM 30 nM
# [6] = AsPC-1, library drug 370.37 nM + GEM 10 nM
# [7] = AsPC-1, library drug 370.37 nM + GEM 30 nM
# [8] = AsPC-1, library drug 1111.11 nM + GEM 10 nM
# [9] = AsPC-1, library drug 1111.11 nM + GEM 30 nM
# [10] = AsPC-1, library drug 3333.33 nM + GEM 10 nM
# [11] = AsPC-1, library drug 3333.33 nM + GEM 30 nM
# [12] = AsPC-1, library drug 10000 nM + GEM 10 nM
# [13] = AsPC-1, library drug 10000 nM + GEM 30 nM
smiles,measurement,setting,value
"Nc1ccn([C@@H]2O[C@H](CO)[C@@H](O)C2(F)F)c(=O)n1 [GEM, Gemcitabine]",Reponse,"AsPC-1 cells; AsPC-1, R1, 13.72 nM",1567840
same,Reponse,"AsPC-1 cells; AsPC-1, R1, 41.15 nM",1226120
same,Reponse,"AsPC-1 cells; AsPC-1, R1, 123.46 nM",1025760
same,Reponse,"AsPC-1 cells; AsPC-1, R1, 370.37 nM",921880
same,Reponse,"AsPC-1 cells; AsPC-1, R1, 1111.11 nM",872680
same,Reponse,"AsPC-1 cells; AsPC-1, R1, 3333.33 nM",849760
same,Reponse,"AsPC-1 cells; AsPC-1, R1, 10000 nM",784080
same,Reponse,"AsPC-1 cells; AsPC-1, R2, 13.72 nM",1654800
same,Reponse,"AsPC-1 cells; AsPC-1, R2, 41.15 nM",1220360
same,Reponse,"AsPC-1 cells; AsPC-1, R2, 123.46 nM",984000
same,Reponse,"AsPC-1 cells; AsPC-1, R2, 370.37 nM",972200
same,Reponse,"AsPC-1 cells; AsPC-1, R2, 1111.11 nM",963400
same,Reponse,"AsPC-1 cells; AsPC-1, R2, 10000 nM",773560
same,AUC,"AsPC-1 cells; AsPC-1, GEM curve fit",70.34
same,Curve bottom,"AsPC-1 cells; AsPC-1, GEM curve fit",0.46
same,Curve effect size,"AsPC-1 cells; AsPC-1, GEM curve fit",0.55
same,Curve slope,"AsPC-1 cells; AsPC-1, GEM curve fit",1.15
same,Curve top,"AsPC-1 cells; AsPC-1, GEM curve fit",1.04
same,GEM low only (raw),"AsPC-1 cells; AsPC-1, luminescence signal, plate mean, GEM 10 nM",1700020
same,GEM high only (raw),"AsPC-1 cells; AsPC-1, luminescence signal, plate mean, GEM 30 nM",1564215
same,EC50,"AsPC-1 cells; ASPC1, read-out: EC50,GEM",≥ 10 nM
same,EC50,"AsPC-1 cells; ASPC1, read-out: EC50",27.1 nM
same,EC50,AsPC-1 cells; [1],26.9 nM
CCN1CCN(Cc2ccc(Nc3ncc(F)c(-c4cc(F)c5nc(C)n(C(C)C)c5c4)n3)nc2)CC1 [Abemaciclib],AUC,"AsPC-1 cells; AsPC-1, GEM high",87.77%
same,Curve bottom,"AsPC-1 cells; AsPC-1, GEM high",0.63
same,Curve effect size,"AsPC-1 cells; AsPC-1, GEM high",0.23
same,Curve slope,"AsPC-1 cells; AsPC-1, GEM high",0.52
same,Curve top,"AsPC-1 cells; AsPC-1, GEM high",0.85
same,AUC,AsPC-1 cells; [2],82.66%
same,Curve bottom,AsPC-1 cells; [2],-0.27
same,Curve effect size,AsPC-1 cells; [2],0.57
same,Curve slope,AsPC-1 cells; [2],0.36
same,Curve top,AsPC-1 cells; [2],0.8
same,AUC,"AsPC-1 cells; AsPC-1, GEM low",89.92%
same,Curve bottom,"AsPC-1 cells; AsPC-1, GEM low",0.62
same,Curve effect size,"AsPC-1 cells; AsPC-1, GEM low",0.28
same,Curve slope,"AsPC-1 cells; AsPC-1, GEM low",1.21
same,Curve top,"AsPC-1 cells; AsPC-1, GEM low",0.86
same,AUC,AsPC-1 cells; [3],82.59%
same,Curve bottom,AsPC-1 cells; [3],-0.23
same,Curve effect size,AsPC-1 cells; [3],0.57
same,Curve slope,AsPC-1 cells; [3],0.36
same,Curve top,AsPC-1 cells; [3],0.87
same,Library drug only (ratio),"AsPC-1 cells; AsPC-1, library drug 123.46 nM",0.76
same,Library drug only (ratio),"AsPC-1 cells; AsPC-1, library drug 370.37 nM",0.72
same,Library drug only (ratio),"AsPC-1 cells; AsPC-1, library drug 1111.11 nM",0.63
same,Library drug only (ratio),"AsPC-1 cells; AsPC-1, library drug 3333.33 nM",0.64
same,Library drug only (ratio),"AsPC-1 cells; AsPC-1, library drug 10000 nM",0.33
same,Library drug + GEM low (ratio),AsPC-1 cells; [4],0.80
same,Library drug + GEM high (ratio),AsPC-1 cells; [5],0.73
same,Library drug + GEM low (ratio),AsPC-1 cells; [6],0.68
same,Library drug + GEM high (ratio),AsPC-1 cells; [7],0.65
same,Library drug + GEM low (ratio),AsPC-1 cells; [8],0.63
same,Library drug + GEM high (ratio),AsPC-1 cells; [9],0.65
same,Library drug + GEM low (ratio),AsPC-1 cells; [10],0.67
same,Library drug + GEM high (ratio),AsPC-1 cells; [11],0.67
same,Library drug + GEM low (ratio),AsPC-1 cells; [12],0.59
same,Library drug + GEM high (ratio),AsPC-1 cells; [13],0.64
same,Bliss_Library drug + GEM low (ratio),AsPC-1 cells; [4],0.69
same,Bliss_Library drug + GEM high (ratio),AsPC-1 cells; [5],0.63
same,Bliss_Library drug + GEM low (ratio),AsPC-1 cells; [6],0.65
same,Bliss_Library drug + GEM high (ratio),AsPC-1 cells; [7],0.60
same,Bliss_Library drug + GEM low (ratio),AsPC-1 cells; [8],0.57
same,Bliss_Library drug + GEM high (ratio),AsPC-1 cells; [9],0.52
same,Bliss_Library drug + GEM low (ratio),AsPC-1 cells; [10],0.58
same,Bliss_Library drug + GEM high (ratio),AsPC-1 cells; [11],0.53
same,Bliss_Library drug + GEM low (ratio),AsPC-1 cells; [12],0.30
same,Bliss_Library drug + GEM high (ratio),AsPC-1 cells; [13],0.27
same,Library drug only (raw),"AsPC-1 cells; AsPC-1, luminescence signal, library drug 123.46 nM",1429160
same,Library drug + GEM low (raw),"AsPC-1 cells; AsPC-1, luminescence signal, library drug 123.46 nM + GEM 10 nM",1506080
same,Library drug + GEM high (raw),"AsPC-1 cells; AsPC-1, luminescence signal, library drug 123.46 nM + GEM 30 nM",1369120
same,Library drug only (raw),"AsPC-1 cells; AsPC-1, luminescence signal, library drug 370.37 nM",1356440
same,Library drug + GEM low (raw),"AsPC-1 cells; AsPC-1, luminescence signal, library drug 370.37 nM + GEM 10 nM",1276520
same,Library drug + GEM high (raw),"AsPC-1 cells; AsPC-1, luminescence signal, library drug 370.37 nM + GEM 30 nM",1223760
same,Library drug only (raw),"AsPC-1 cells; AsPC-1, luminescence signal, library drug 1111.11 nM",1177560
same,Library drug + GEM low (raw),"AsPC-1 cells; AsPC-1, luminescence signal, library drug 1111.11 nM + GEM 10 nM",1187000
same,Library drug + GEM high (raw),"AsPC-1 cells; AsPC-1, luminescence signal, library drug 1111.11 nM + GEM 30 nM",1214720
same,Library drug only (raw),"AsPC-1 cells; AsPC-1, luminescence signal, library drug 3333.33 nM",1196040
same,Library drug + GEM low (raw),"AsPC-1 cells; AsPC-1, luminescence signal, library drug 3333.33 nM + GEM 10 nM",1253360
same,Library drug + GEM high (raw),"AsPC-1 cells; AsPC-1, luminescence signal, library drug 3333.33 nM + GEM 30 nM",1251960
same,Library drug only (raw),"AsPC-1 cells; AsPC-1, luminescence signal, library drug 10000 nM",618520
same,Library drug + GEM low (raw),"AsPC-1 cells; AsPC-1, luminescence signal, library drug 10000 nM + GEM 10 nM",1109040
same,Library drug + GEM high (raw),"AsPC-1 cells; AsPC-1, luminescence signal, library drug 10000 nM + GEM 30 nM",1201080
same,AUC,"AsPC-1 cells; AsPC-1, no GEM (single drug)",82.59%
same,Curve bottom,"AsPC-1 cells; AsPC-1, no GEM (single drug)",-0.27
same,Curve effect size,"AsPC-1 cells; AsPC-1, no GEM (single drug)",0.57
same,Curve slope,"AsPC-1 cells; AsPC-1, no GEM (single drug)",0.36
same,Curve top,"AsPC-1 cells; AsPC-1, no GEM (single drug)",0.97
same,EC50,"AsPC-1 cells; ASPC1, read-out: EC50",16500 nM
same,EC50,AsPC-1 cells; [1],16600 nM
same,EC50,AsPC-1,> 10000 nM
same,EC50,BxPC-3,337 nM
same,EC50,PaTu-8988-T,2850 nM
